These results are taken from patent US20240226108A9, “TREATMENT OF BRAIN INJURIES” (ASTON UNIVERSITY, priority 2021, published 2024).

In one assay the test system is rat brain tissue slices. Kind of assay: calcein AM cell viability staining of brain slices subjected to hypoxia. It counts as cell-based. As to conditions: calcein AM MFI, Maraviroc 50 μM, trifluoperazine 100 μM, 1 hour pre-treatment, 30 minutes hypoxia; for Significant? (Dunn's multiple comparisons test vs. vehicle control): Alpha 0.05; for Mean rank 2 (mean rank of treatment group, Kruskal-Wallis): vehicle control mean rank 11.73. How it is done: Brain slices were pre-treated for 1 hour with final concentrations of Maraviroc (50 μM), trifluoperazine (100 μM), and both drugs trifluoperazine and maraviroc against vehicle control for 1 hour, before being subjected to 30 minutes of hypoxia.
Damage to the brain tissue was determined by staining the tissue with acetoxymethyl calcein (calcein AM), available from Abcam Ltd, Cambridge, UK and Thermo Fisher, USA. The assay is a quantitative assay used to determine cell viability.

The target in a further assay is CCR5 (Mus musculus, UniProt P51682). Conditions: compared with CCR5 knockdown; cited from earlier work.
Sequence of CCR5 (P51682 whole entry): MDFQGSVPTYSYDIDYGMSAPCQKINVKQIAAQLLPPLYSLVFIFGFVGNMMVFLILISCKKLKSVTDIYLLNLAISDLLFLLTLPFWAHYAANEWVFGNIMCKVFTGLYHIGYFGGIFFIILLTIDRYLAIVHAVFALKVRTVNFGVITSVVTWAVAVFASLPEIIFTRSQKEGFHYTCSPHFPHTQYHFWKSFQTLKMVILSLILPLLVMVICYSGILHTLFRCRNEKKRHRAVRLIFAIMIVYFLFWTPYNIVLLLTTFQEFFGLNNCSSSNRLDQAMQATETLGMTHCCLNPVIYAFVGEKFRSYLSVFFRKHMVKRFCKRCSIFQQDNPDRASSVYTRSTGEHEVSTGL

In the case of `CN1CCN(CCCN2c3ccccc3Sc3ccc(C(F)(F)F)cc32)CC1` [TFP, trifluoperazine], in the assay on rat brain tissue slices, the “Significant? (Dunn's multiple comparisons test vs. vehicle control)” value is given as “Yes”; the “Mean rank diff. (Dunn's multiple comparisons test, vehicle control vs. treatment)” value is −25.87; the “Summary (significance stars, Dunn's multiple comparisons test vs. vehicle control)” value is “*** ((***) p≤001)”; the “Z (Dunn's multiple comparisons test vs. vehicle control)” value was 4.056. Further, in the assay on rat brain tissue slices, the “Mean rank 2 (mean rank of treatment group, Kruskal-Wallis)” value is given as 37.60.

For the molecule Maraviroc, in the assay with rat brain tissue slices, the “Significant? (Dunn's multiple comparisons test vs. vehicle control)” value is on record as “Yes”; the “Mean rank diff. (Dunn's multiple comparisons test, vehicle control vs. treatment)” value is −22.07; the “Summary (significance stars, Dunn's multiple comparisons test vs. vehicle control)” value is recorded as “** ((**) p≤0.01)”; the “Z (Dunn's multiple comparisons test vs. vehicle control)” value is given as 3.460. The “Mean rank 2 (mean rank of treatment group, Kruskal-Wallis)” value in the assay with rat brain tissue slices was 33.80. In addition, at CCR5, the “motor recovery post-stroke and cognitive decline post traumatic brain injury” value was “produced similar effects on motor recovery post-stroke and cognitive decline post traumatic brain injury”.
